Assay results: patent publication US12208167B1 (priority 2024, dated 2025)
Where a name gives a salt, the structure may show the parent alone.

Assays:
[1] = single oral dose of 5 mg delayed release tablet, fasting
Method: Male and female study participants (in equal proportions) were enrolled in the study. A total of 54 normal, healthy, adult, human study participants were enrolled. All subjects either received test product (test) or reference product (reference) in each period according to the randomization schedule after ensuring maintenance of pre-dose restrictions (fasting for 10 hours prior to administration in sitting posture with 240±2 mL of drinking water at ambient temperature).
A washout period of 7 days was observed between both study periods. Study restrictions with respect to fluid intake and sitting positions were implemented during the restriction periods throughout the study in all periods.
Study participants were instructed not to break, cut, and chew the tablet (test or reference) but to swallow whole and were asked to take it with the specified quantity of water. Water intake was not allowed for 1 hour before dosing until 1 hour after dosing except while administration of the dose. After dosing, the participants remained in sitting position for first two hours. On dosing days, meals were given as per the following schedule. […]
The actual post-dose time of collection was used in the calculation of the above pharmacokinetic parameters. Drug concentrations that are below limit of quantification (BLQ) were treated as “zero” in all pharmacokinetic and statistical calculations. […]

[2] = cited from earlier work
[3] = cited from earlier work; remark: listed apart in the source

| Compound | plasma benzgalantamine concentration profile after test tablet [1] | gastrointestinal adverse events ([2]; intranasal, twice daily dose of 11 mg) | tolerability ([2]; intranasal, up to a twice daily dose of 22 mg) | administered compound not cleaved to galantamine, observed in blood ([2]; nasal administration, previous studies) | mean volume of distribution ([3]; human, in vivo) [L] | tmax ([3]; oral galantamine) |
| --- | --- | --- | --- | --- | --- | --- |
| COc1ccc2c3c1OC1C[C@@H](OC(=O)c4ccccc4)C=C[C@@]31CCN(C)C2 (stereo partly drawn) [benzgalantamine, (4aS,6R,8aS)-4a,5,9,10,11,12-hexahydro-3-methoxy-11-methyl-6H[1]benzofuro[3a,3,2-ef][2]benzazepin-6 benzoate gluconate salt] | almost all values are zero or below limit of quantification (BLQ) at all times | No gastrointestinal adverse events were observed | well tolerated | up to 10% | – | – |
| COc1ccc2c3c1O[C@H]1C[C@@H](O)C=C[C@@]31CCN(C)C2 [galantamine, (4aS,6R,8aS)-3-Methoxy-11-methyl-4a,5,9,10,11,12-hexahydro-6H-benzofuro[3a,3,2-ef][2]benzazepin-6-ol] | – | – | – | – | 175 | about 1 hour |
